According to ChEMBL document CHEMBL1909046, “DrugMatrix in vitro pharmacology data”:

What was measured:
[1] = DRUGMATRIX: Sodium/nucleoside co-transporter radioligand binding (ligand: nitrobenzylthioinosine); type: cell membranes, Cavia porcellus, Dunkin-Hartley, Cerebral cortex, Membrane; conditions: Not Active = under 50% inhibition at 10 µM
[2] = target: T1, Alpha-2A adrenergic receptor (Homo sapiens, UniProt P08913); type: cell membranes, Sf9, Membrane; also: in other assays of this panel Not Active means under 50% inhibition at 10 µM
T1 sequence (P08913 whole entry): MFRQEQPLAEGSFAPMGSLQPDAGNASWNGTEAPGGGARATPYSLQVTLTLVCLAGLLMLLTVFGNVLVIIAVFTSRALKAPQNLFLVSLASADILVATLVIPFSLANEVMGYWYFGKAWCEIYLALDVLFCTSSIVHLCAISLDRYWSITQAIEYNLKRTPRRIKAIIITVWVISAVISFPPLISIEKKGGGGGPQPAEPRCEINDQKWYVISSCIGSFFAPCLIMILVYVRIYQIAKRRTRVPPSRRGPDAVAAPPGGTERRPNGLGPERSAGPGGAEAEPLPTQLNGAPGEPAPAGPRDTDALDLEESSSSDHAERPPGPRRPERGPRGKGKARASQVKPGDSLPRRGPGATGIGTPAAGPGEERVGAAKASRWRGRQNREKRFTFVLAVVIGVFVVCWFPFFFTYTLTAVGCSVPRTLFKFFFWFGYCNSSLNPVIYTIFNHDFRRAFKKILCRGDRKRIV

[3] = target: Vascular endothelial growth factor receptor 1 (Homo sapiens, UniProt P17948); type: cell-based; conditions: huvec; also: in other assays of this panel Not Active means under 50% inhibition at 10 µM
Chain of Vascular endothelial growth factor receptor 1 (P17948 whole entry): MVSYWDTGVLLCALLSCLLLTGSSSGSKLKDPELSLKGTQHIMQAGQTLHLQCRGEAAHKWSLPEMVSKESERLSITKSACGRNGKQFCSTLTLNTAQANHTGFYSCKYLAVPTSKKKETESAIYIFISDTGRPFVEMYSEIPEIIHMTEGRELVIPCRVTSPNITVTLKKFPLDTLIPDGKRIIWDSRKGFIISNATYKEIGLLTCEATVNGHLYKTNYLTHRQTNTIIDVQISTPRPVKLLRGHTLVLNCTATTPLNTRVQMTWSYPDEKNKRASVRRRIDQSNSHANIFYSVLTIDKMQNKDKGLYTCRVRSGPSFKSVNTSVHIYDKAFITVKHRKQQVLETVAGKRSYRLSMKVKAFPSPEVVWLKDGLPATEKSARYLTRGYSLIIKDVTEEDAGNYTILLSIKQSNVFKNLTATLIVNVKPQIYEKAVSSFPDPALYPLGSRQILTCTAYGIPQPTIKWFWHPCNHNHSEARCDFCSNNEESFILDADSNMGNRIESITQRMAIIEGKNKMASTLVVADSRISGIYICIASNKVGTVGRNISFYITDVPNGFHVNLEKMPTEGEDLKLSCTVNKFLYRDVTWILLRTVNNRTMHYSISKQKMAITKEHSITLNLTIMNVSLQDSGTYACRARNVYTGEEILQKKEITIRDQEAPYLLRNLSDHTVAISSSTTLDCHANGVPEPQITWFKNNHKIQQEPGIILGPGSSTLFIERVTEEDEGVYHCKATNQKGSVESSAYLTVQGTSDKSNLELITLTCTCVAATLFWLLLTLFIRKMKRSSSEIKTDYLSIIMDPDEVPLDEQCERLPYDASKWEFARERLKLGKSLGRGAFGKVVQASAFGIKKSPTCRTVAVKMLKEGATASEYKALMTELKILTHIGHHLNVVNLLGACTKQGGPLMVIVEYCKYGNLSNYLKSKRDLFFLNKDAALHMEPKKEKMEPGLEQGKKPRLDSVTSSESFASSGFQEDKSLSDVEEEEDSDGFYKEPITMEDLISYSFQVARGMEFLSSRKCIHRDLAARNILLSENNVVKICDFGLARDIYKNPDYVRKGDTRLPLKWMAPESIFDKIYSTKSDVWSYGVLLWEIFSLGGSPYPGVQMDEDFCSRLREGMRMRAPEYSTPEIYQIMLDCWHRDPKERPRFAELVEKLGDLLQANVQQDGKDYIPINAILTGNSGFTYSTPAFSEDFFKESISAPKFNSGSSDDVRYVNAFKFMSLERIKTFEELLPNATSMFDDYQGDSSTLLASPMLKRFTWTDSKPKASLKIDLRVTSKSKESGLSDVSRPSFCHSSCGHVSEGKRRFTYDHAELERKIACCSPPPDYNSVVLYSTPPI

[4] = target: T2, Cholecystokinin receptor type A (Homo sapiens, UniProt P32238); type: cell membranes, Membrane; conditions: 1321-n1; also: in other assays of this panel Not Active means under 50% inhibition at 10 µM
T2 sequence (P32238 whole entry): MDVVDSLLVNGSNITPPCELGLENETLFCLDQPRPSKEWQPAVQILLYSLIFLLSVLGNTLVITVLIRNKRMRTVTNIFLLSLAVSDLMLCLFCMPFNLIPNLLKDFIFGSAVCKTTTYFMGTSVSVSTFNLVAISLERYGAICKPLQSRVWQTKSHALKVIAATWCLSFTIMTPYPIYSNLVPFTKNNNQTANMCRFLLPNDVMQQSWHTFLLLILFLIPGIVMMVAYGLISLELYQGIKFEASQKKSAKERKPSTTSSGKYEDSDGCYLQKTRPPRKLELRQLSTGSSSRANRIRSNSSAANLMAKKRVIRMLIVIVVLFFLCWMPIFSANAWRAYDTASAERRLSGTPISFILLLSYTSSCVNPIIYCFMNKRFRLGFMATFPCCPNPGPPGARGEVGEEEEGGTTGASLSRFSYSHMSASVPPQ

[5] = target: Prostaglandin G/H synthase 1 (Homo sapiens, UniProt P23219); test: biochemical; type: tissue-based, Platelet;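 also: inhibition of COX-1 enzyme activity, with arachidonic acid supplied as substrate; in other assays of this panel Not Active means under 50% inhibition at 10 µM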
Chain of Prostaglandin G/H synthase 1 (P23219 whole entry): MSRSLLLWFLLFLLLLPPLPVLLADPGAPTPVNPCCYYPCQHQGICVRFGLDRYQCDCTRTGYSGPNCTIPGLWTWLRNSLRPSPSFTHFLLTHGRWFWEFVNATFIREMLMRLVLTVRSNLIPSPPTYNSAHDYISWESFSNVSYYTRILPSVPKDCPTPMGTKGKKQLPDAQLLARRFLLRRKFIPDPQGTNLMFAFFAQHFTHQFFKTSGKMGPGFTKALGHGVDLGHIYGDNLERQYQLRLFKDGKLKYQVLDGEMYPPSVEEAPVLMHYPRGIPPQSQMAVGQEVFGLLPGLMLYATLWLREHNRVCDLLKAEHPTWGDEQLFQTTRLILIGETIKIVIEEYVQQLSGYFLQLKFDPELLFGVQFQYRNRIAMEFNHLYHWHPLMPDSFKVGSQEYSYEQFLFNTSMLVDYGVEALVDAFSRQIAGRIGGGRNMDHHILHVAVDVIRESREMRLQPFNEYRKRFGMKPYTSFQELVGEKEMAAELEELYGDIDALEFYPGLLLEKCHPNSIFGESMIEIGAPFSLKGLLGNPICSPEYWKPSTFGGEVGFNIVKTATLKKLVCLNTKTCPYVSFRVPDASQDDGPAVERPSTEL

[6] = target: Nitric oxide synthase 1 (Rattus norvegicus, UniProt P29476); type: tissue-based, Cerebellum; also: in other assays of this panel Not Active means under 50% inhibition at 10 µM
Chain of Nitric oxide synthase 1 (P29476 whole entry): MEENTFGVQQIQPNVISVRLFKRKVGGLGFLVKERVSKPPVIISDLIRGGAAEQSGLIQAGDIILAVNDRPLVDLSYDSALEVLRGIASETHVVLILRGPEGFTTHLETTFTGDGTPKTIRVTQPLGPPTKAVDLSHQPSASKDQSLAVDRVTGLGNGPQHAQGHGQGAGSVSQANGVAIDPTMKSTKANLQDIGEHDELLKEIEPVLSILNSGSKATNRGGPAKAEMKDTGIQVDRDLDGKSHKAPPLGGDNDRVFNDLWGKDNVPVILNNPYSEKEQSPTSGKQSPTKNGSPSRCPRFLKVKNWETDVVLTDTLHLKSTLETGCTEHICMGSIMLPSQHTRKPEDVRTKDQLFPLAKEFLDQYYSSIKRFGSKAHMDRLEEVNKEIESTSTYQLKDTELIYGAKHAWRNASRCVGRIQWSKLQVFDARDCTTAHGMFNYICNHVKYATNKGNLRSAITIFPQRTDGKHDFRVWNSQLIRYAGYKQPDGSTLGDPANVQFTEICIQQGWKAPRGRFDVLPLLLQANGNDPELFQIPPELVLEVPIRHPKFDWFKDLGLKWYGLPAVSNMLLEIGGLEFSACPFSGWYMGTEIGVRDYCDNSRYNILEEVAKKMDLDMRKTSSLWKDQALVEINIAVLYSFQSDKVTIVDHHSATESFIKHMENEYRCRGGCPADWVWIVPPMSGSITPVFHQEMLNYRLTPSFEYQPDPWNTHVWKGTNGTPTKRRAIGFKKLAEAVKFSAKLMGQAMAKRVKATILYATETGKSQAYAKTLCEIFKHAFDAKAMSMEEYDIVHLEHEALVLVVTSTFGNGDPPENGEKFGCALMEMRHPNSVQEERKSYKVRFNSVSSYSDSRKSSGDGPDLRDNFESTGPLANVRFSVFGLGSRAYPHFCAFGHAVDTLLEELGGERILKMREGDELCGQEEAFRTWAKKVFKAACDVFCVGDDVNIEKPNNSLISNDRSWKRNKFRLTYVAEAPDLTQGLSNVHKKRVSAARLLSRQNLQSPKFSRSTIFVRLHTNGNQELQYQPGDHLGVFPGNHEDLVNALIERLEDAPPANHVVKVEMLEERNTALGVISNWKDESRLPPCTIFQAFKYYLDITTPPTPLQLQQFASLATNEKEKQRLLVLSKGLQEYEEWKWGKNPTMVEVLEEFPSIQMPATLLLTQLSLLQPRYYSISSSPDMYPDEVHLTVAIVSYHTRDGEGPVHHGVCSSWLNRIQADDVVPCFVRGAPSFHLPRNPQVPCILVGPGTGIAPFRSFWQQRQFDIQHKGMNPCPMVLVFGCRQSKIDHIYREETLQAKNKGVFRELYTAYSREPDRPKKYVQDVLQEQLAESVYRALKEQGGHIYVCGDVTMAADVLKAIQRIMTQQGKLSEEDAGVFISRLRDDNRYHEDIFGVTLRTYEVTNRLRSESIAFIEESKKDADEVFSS

[7] = target: T3, Caspase-1 (Homo sapiens, UniProt P29466); set-up: species or system Escherichia coli
T3 sequence (P29466 whole entry): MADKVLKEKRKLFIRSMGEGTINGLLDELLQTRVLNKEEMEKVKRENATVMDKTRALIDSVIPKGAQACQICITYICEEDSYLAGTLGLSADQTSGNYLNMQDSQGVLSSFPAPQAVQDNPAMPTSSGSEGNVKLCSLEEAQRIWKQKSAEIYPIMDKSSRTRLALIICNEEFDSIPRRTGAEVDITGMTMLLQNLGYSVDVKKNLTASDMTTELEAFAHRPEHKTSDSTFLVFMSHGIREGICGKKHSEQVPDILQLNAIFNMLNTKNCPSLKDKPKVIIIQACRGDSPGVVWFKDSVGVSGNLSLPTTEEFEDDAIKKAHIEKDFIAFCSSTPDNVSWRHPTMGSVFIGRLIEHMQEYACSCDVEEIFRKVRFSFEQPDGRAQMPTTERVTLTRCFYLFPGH

| SMILES | IC50 [1] | Ki [1] | IC50 ([2]; read-out: IC50) [nM] | Ki ([2]; read-out: Ki) [nM] | IC50 [3] | IC50 [4] | IC50 ([5]; platelet) | IC50 [6] | IC50 [7] | IC50 ([2]; sf9) | IC50 ([5]; read-out: IC50) [nM] |
| --- | --- | --- | --- | --- | --- | --- | --- | --- | --- | --- | --- |
| CN(C)c1ccc(C(=C2C=CC(=[N+](C)C)C=C2)c2ccc(N(C)C)cc2)cc1.[Cl-] [GENTIAN VIOLET] | Not Active | Not Active | 536 | 201 | Not Active | Not Active | Not Active | Not Active | Not Active |  |  |
| Cc1ccc(S(=O)(=O)NC(=O)NN2CC3CCCC3C2)cc1 (configuration not stated) [GLICLAZIDE] | Not Active | Not Active |  |  | Not Active | Not Active | Not Active | Not Active | Not Active | Not Active |  |
| NC(=O)NO [HYDROXYUREA] | Not Active | Not Active |  |  | Not Active | Not Active | Not Active | Not Active | Not Active | Not Active |  |
| CCc1c2c(nc3ccc(OC(=O)N4CCC(N5CCCCC5)CC4)cc13)-c1cc3c(c(=O)n1C2)COC(=O)[C@]3(O)CC [IRINOTECAN] | Not Active | Not Active |  |  | Not Active | Not Active | Not Active | Not Active | Not Active | Not Active |  |
| Nc1ccn([C@@H]2CS[C@H](CO)O2)c(=O)n1 [LAMIVUDINE] | Not Active | Not Active |  |  | Not Active | Not Active | Not Active | Not Active | Not Active | Not Active |  |
| O=S(=O)([O-])CCS.[Na+] [MESNA] | Not Active | Not Active |  |  | Not Active | Not Active | Not Active | Not Active | Not Active | Not Active |  |
| C#C[C@]1(O)CC[C@H]2[C@@H]3CCc4cc(OC)ccc4[C@H]3CC[C@@]21C [MESTRANOL] | Not Active | Not Active |  |  | Not Active | Not Active | Not Active | Not Active | Not Active | Not Active |  |
| CC(=O)Nc1cccc(O)c1 [METACETAMOL] | Not Active | Not Active |  |  | Not Active | Not Active | Not Active | Not Active | Not Active | Not Active |  |
| Cc1ncc([N+](=O)[O-])n1CCO [METRONIDAZOLE] | Not Active | Not Active |  |  | Not Active | Not Active | Not Active | Not Active | Not Active | Not Active |  |
| CC(C)(C(=O)c1cccnc1)c1cccnc1 [METYRAPONE] | Not Active | Not Active |  |  | Not Active | Not Active | Not Active | Not Active | Not Active | Not Active |  |
| Oc1ccc(OCc2ccccc2)cc1 [MONOBENZONE] | Not Active | Not Active |  |  | Not Active | Not Active |  | Not Active | Not Active | Not Active | 1020 |
| CC(C)(Oc1ccc(C2CCCc3ccccc32)cc1)C(=O)O (configuration not stated) [NAFENOPIN] | Not Active | Not Active |  |  | Not Active | Not Active | Not Active | Not Active | Not Active | Not Active |  |
| CC(C)[C@H]1CC[C@H](C(=O)N[C@H](Cc2ccccc2)C(=O)O)CC1 [NATEGLINIDE] | Not Active | Not Active |  |  | Not Active | Not Active | Not Active | Not Active | Not Active | Not Active |  |
| CCN[C@@H]1C[C@H](N)[C@@H](O[C@H]2OC(CN)=CC[C@H]2N)[C@H](O)[C@H]1O[C@H]1OC[C@](C)(O)[C@H](NC)[C@H]1O [NETILMICIN] | Not Active | Not Active |  |  | Not Active | Not Active | Not Active | Not Active | Not Active | Not Active |  |
| COC(=O)C1=C(C)NC(C)=C(C(=O)OCC(C)C)C1c1ccccc1[N+](=O)[O-] (configuration not stated) [NISOLDIPINE] | Not Active | Not Active |  |  | Not Active | Not Active | Not Active | Not Active | Not Active | Not Active |  |
| CCOC(=O)C1=C(C)NC(C)=C(C(=O)OC)C1c1cccc([N+](=O)[O-])c1 (configuration not stated) [NITRENDIPINE] | Not Active | Not Active |  |  | Not Active | Not Active | Not Active | Not Active | Not Active | Not Active |  |
| C#C[C@]1(OC(C)=O)CC[C@H]2[C@@H]3CCC4=CC(=O)CC[C@@H]4[C@H]3CC[C@@]21C [NORETHINDRONE ACETATE] | Not Active | Not Active |  |  | Not Active | Not Active | Not Active | Not Active | Not Active | Not Active |  |
| COc1ccc2[nH]c([S+]([O-])Cc3ncc(C)c(OC)c3C)nc2c1 (configuration not stated) [OMEPRAZOLE] | Not Active | Not Active |  |  | Not Active | Not Active | Not Active | Not Active | Not Active | Not Active |  |
| Cc1nccn1CC1CCc2c(c3ccccc3n2C)C1=O (configuration not stated) [ONDANSETRON] | Not Active | Not Active |  |  | Not Active | Not Active | Not Active | Not Active | Not Active | Not Active |  |
| CCn1cc(C(=O)O)c(=O)c2cc(F)c(N3CCN(C)CC3)cc21 [PEFLOXACIN] | Not Active | Not Active |  |  | Not Active | Not Active | Not Active | Not Active | Not Active | Not Active |  |
| CCCCOc1ccc(OCCCN2CCOCC2)cc1 [PRAMOXINE] | Not Active | Not Active |  |  | Not Active | Not Active | Not Active | Not Active | Not Active | Not Active |  |
| O=C(C1CCCCC1)N1CC(=O)N2CCc3ccccc3C2C1 (configuration not stated) [PRAZIQUANTEL] | Not Active | Not Active |  |  | Not Active | Not Active | Not Active | Not Active | Not Active | Not Active |  |
| CCN(CC)CCOC(=O)c1ccc(N)cc1 [PROCAINE] | Not Active | Not Active |  |  | Not Active | Not Active | Not Active | Not Active | Not Active | Not Active |  |
| CCCN(CCC)C(=O)C(CCC(=O)O)NC(=O)c1ccccc1 (configuration not stated) [PROGLUMIDE] | Not Active | Not Active |  |  | Not Active | Not Active | Not Active | Not Active | Not Active | Not Active |  |
| NC(=O)c1cnccn1 [PYRAZINAMIDE] | Not Active | Not Active |  |  | Not Active | Not Active | Not Active | Not Active | Not Active | Not Active |  |
| OC(CCN1CCCCC1)(c1ccccc1)C1CCCCC1 (configuration not stated) [TRIHEXYPHENIDYL] | Not Active | Not Active |  |  | Not Active | Not Active | Not Active | Not Active | Not Active | Not Active |  |
| Cc1cc2cc3c(C)cc(=O)oc3c(C)c2o1 [TRIOXSALEN] | Not Active | Not Active |  |  | Not Active | Not Active | Not Active | Not Active | Not Active | Not Active |  |
